Measurements taken from patent US7816400B2 (The University of Hong Kong, priority 2007, dated 2010).

Tested on: Kunmin mice
Assay: Acute toxicity in mice
Assay type: in vivo
Conditions: oral, two-week observation
Description: The animals were observed closely with a two-week duration for death number and activity.

Structure (SMILES): COc1ccc(-c2cc(=O)c3c(O)cc(O)cc3o2)cc1 [Acacetin, 5,7-dihydroxy-4′-methoxyflavone]
- abnormal activity compared to vehicle-control animals (0.3 g/kg three times): no abnormal activity
- animal death (900 mg/kg (0.3 g/kg three times at intervals of 1.5 h), 900 mg/kg): no animal death
